Tests used:
Assay type in all cases: cell-based
[1] = molecular target: T1, human TLR7 (Homo sapiens, UniProt Q9NYK1); assay: TLR7 inhibition reporter assay (HEK-Blue SEAP reporter, gardiquimod stimulation); conditions: HEK-Blue cells overexpressing human TLR7, SEAP reporter, gardiquimod 7.5 μM, 22 hour incubation
T1 construct: host or cells: HEK-Blue cells
T1 sequence (Q9NYK1 27-1049): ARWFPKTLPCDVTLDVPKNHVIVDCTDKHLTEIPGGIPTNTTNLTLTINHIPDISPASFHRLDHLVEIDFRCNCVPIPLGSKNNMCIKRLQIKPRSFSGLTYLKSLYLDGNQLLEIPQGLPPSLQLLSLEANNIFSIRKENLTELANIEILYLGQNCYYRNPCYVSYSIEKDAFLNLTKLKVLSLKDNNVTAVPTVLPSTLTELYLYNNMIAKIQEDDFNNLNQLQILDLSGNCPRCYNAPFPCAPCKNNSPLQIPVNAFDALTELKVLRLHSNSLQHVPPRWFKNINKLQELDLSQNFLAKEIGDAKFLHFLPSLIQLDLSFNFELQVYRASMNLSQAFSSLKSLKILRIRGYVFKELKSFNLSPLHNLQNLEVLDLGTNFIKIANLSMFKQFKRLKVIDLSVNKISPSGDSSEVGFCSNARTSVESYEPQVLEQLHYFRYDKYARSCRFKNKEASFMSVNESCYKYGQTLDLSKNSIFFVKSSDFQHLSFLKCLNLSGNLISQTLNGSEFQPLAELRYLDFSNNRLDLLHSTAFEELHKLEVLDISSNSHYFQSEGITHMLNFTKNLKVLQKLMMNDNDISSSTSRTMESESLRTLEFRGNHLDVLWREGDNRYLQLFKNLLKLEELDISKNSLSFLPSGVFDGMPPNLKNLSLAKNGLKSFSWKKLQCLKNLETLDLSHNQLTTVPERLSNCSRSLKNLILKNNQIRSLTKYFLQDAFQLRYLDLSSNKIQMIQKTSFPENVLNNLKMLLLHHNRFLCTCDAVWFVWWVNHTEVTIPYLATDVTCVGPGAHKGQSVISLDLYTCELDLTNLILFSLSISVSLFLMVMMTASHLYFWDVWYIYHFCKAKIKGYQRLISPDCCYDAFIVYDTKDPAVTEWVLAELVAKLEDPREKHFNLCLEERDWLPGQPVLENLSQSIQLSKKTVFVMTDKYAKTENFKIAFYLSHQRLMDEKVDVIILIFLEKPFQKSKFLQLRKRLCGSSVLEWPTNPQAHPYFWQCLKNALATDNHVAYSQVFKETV
Method in brief: (§1)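 HEK-Blue cells overexpressing human TLR7, TLR8 or TLR9 carry a SEAP reporter driven by NF-κB/AP-1 sites. Compounds (0.05 nM–50 μM) were preincubated 30 min at room temperature, then cells were stimulated with gardiquimod 7.5 μM (TLR7), R848 15.9 μM (TLR8) or ODN2006 5 nM (TLR9) for 22 h at 37 °C.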

[2] = molecular target: T2, human TLR8 (Homo sapiens, UniProt Q9NR97); assay: TLR8 inhibition reporter assay (HEK-Blue SEAP reporter, R848 stimulation); conditions: HEK-Blue cells overexpressing human TLR8, SEAP reporter, R848 15.9 μM, 22 hour incubation
T2 construct: host or cells: HEK-Blue cells
T2 sequence (Q9NR97 27-1041): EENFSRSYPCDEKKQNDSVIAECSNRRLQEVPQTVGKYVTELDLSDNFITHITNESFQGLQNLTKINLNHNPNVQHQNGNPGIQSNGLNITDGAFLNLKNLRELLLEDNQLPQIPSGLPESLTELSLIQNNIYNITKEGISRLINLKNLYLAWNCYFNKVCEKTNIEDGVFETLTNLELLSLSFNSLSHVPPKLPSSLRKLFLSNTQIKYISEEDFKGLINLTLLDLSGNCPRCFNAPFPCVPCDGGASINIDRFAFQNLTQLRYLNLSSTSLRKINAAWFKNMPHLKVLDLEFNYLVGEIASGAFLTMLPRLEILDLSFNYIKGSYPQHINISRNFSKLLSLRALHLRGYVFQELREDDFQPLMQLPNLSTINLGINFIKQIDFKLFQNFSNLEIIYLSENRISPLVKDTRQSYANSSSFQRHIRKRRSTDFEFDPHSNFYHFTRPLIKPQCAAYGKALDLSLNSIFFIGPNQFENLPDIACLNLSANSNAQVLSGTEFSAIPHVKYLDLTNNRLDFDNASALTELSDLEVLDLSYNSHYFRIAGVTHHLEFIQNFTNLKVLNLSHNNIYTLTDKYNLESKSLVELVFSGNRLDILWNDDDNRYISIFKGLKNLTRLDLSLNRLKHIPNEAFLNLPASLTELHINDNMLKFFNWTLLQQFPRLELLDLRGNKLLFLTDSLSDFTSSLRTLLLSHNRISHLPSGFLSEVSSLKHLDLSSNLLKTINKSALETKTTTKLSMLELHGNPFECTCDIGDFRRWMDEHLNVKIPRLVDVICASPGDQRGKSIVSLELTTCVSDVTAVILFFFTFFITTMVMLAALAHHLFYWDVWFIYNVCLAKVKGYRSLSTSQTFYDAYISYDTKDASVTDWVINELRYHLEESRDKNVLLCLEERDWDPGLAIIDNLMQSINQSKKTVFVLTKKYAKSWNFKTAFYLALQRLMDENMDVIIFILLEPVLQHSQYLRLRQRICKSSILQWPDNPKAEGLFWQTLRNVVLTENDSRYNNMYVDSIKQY
Method in brief: as §1

[3] = molecular target: T3, human TLR9 (Homo sapiens, UniProt Q9NR96); assay: TLR9 inhibition reporter assay (HEK-Blue SEAP reporter, ODN2006 stimulation); conditions: HEK-Blue cells overexpressing human TLR9, SEAP reporter, ODN2006 5 nM, 22 hour incubation
T3 construct: host or cells: HEK-Blue cells
T3 sequence (Q9NR96 26-1032): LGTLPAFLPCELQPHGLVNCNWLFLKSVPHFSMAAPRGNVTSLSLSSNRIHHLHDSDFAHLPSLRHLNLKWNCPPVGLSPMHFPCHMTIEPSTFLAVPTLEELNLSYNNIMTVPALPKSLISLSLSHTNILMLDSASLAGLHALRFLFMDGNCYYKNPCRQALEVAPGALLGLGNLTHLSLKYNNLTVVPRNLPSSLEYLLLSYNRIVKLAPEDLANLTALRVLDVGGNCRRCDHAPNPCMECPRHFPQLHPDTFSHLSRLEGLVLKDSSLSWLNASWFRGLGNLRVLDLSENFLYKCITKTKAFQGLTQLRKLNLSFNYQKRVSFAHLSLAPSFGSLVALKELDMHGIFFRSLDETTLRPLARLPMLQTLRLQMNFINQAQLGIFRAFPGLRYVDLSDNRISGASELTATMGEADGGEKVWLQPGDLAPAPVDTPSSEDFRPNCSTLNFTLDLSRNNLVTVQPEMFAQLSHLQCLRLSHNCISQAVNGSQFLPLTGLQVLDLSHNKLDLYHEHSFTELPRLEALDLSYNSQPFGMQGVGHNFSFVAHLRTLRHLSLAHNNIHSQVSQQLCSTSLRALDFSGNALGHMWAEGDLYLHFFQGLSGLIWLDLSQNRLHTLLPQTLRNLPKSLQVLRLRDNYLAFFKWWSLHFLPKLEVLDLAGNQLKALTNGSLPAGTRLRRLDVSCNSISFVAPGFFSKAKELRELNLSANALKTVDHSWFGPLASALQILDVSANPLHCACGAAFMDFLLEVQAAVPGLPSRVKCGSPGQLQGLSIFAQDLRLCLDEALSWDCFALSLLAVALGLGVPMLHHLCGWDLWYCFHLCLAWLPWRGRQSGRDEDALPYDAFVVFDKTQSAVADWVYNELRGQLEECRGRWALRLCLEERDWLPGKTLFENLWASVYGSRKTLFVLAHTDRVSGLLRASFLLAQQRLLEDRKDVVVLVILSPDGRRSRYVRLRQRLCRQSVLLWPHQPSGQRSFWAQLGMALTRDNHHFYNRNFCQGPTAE
Method in brief: as §1

Structure (SMILES) | IC50 [1] [nM] | IC50 [2] [nM] | IC50 [3] [nM]
COc1c(C)c(-c2[nH]c3ccc(C4CCN(CC(=O)N(C)C)CC4)cc3c2C(C)C)cn(C)c1=O [Example 141, 2-(4-(3-isopropyl-2-(5-methoxy-1,4-dimethyl-6-oxo-1,6-dihydropyridin-3-yl)-1H-indol-5-yl)piperidin-1-yl)-N,N-dimethylacetamide] | 27.9 | 37.3 | 4460
Cc1c(-c2[nH]c3ccc(C4CCN(CC(C)(C)O)CC4)cc3c2C(C)C)cn(C)c(=O)c1C#N [Example 322, 5-(5-(1-(2-hydroxy-2-methylpropyl)piperidin-4-yl)-3-isopropyl-1H-indol-2-yl)-1,4-dimethyl-2-oxo-1,2-dihydropyridine-3-carbonitrile] | 45.7 | 1 | 4790
Cc1cc(-c2[nH]c3ccc(C4CCN(C5CCOCC5)CC4)cc3c2C(C)C)nn(C)c1=O [Example 194, 6-(3-isopropyl-5-(1-(tetrahydro-2H-pyran-4-yl)piperidin-4-yl)-1H-indol-2-yl)-2,4-dimethylpyridazin-3(2H)-one] | 10.2 | 6.3 | 2980
COCCn1cc(-c2[nH]c3ccc(C4CCN(C(=O)CN(C)C)CC4)cc3c2C(C)C)cc(C)c1=O [Example 287, 5-(5-(1-(dimethylglycyl)piperidin-4-yl)-3-isopropyl-1H-indol-2-yl)-1-(2-methoxyethyl)-3-methylpyridin-2(1H)-one] | 7.8 | 8.6 | 18200
Cc1cc(-c2[nH]c3ccc(C4CCN(CC(=O)N5CCCC5)CC4)cc3c2C(C)C)cn(C)c1=O [Example 122, 5-(3-isopropyl-5-(1-(2-oxo-2-(pyrrolidin-1-yl)ethyl)piperidin-4-yl)-1H-indol-2-yl)-1,3-dimethylpyridin-2(1H)-one] | 4.9 | 15.7 | 14700
Cc1c(-c2[nH]c3ccc(C4CCNCC4)cc3c2C(C)C)cn(C)c(=O)c1Cl [Example 31, 3-chloro-5-(3-isopropyl-5-(piperidin-4-yl)-1H-indol-2-yl)-1,4-dimethylpyridin-2(1H)-one] | 1 | 7 | 1120
Cc1c(-c2[nH]c3ccc(C4CCN(CC(=O)N(C)C)CC4)cc3c2C(C)C)cn(C)c(=O)c1C#N [Example 147, 2-(4-(2-(5-cyano-1,4-dimethyl-6-oxo-1,6-dihydropyridin-3-yl)-3-isopropyl-1H-indol-5-yl)piperidin-1-yl)-N,N-dimethylacetamide] | 56.3 | 4.8 | 5020
Cc1cc(-c2[nH]c3ccc(C4CCN(C(=O)CN(C)C)CC4)cc3c2C(C)C)cn(CC(C)C)c1=O [Example 285, 5-(5-(1-(dimethylglycyl)piperidin-4-yl)-3-isopropyl-1H-indol-2-yl)-1-isobutyl-3-methylpyridin-2(1H)-one] | 14.6 | 99.1 | 3410
CCCN1CCC(c2ccc3[nH]c(-c4cc(C)c(=O)n(C)c4)c(C(C)C)c3c2)CC1 [Example 224, 5-(3-isopropyl-5-(1-propylpiperidin-4-yl)-1H-indol-2-yl)-1,3-dimethylpyridin-2(1H)-one] | 1.8 | 4.5 | 14000
CCn1cc(-c2[nH]c3ccc(C4CCN(C(C)C)CC4)cc3c2C(C)C)c(C)c(C)c1=O [Example 213, 1-ethyl-5-(3-isopropyl-5-(1-isopropylpiperidin-4-yl)-1H-indol-2-yl)-3,4-dimethylpyridin-2(1H)-one] | 15.6 | 16.5 | 2910
Cc1cc(-c2[nH]c3ccc(C4CCN(CC5CC5)CC4)cc3c2C(C)C)cn(C)c1=O [Example 223, 5-(5-(1-(cyclopropylmethyl)piperidin-4-yl)-3-isopropyl-1H-indol-2-yl)-1,3-dimethylpyridin-2(1H)-one] | 10 | 13.6 | 5910
C=C(C)c1cc(-c2[nH]c3ccc(C4CCNCC4)cc3c2C(C)C)cn(C)c1=O [Example 51, 5-(3-isopropyl-5-(piperidin-4-yl)-1H-indol-2-yl)-1-methyl-3-(prop-1-en-2-yl)pyridin-2(1H)-one] | 10.9 | 30.6 | 2580
Cc1c(-c2[nH]c3ccc(C4CCN(C(=O)CN(C)C)CC4)cc3c2C(C)C)cc(C#N)c(=O)n1C [Example 273, 5-(5-(1-(dimethylglycyl)piperidin-4-yl)-3-isopropyl-1H-indol-2-yl)-1,6-dimethyl-2-oxo-1,2-dihydropyridine-3-carbonitrile] | 90.2 | 16 | 2080
Cc1c(-c2[nH]c3ccc(C4CCN(CC5CCOC5)CC4)cc3c2C(C)C)cn(C)c(=O)c1Cl (stereo not drawn) [Example 254, 3-chloro-5-(3-isopropyl-5-(1-((tetrahydrofuran-3-yl)methyl)piperidin-4-yl)-1H-indol-2-yl)-1,4-dimethylpyridin-2(1H)-one] | 5.5 | 2.1 | 2670

Source: patent publication US11447466B2, “Substituted indole compounds useful as inhibitors of TLR7/8/9” (BRISTOL-MYERS SQUIBB COMPANY, priority 2017, dated 2022)
